Experimental data from patent publication US20090156477A1, “Compositions and Methods for Regulating Inflammatory Responses” (Massachusetts Institute of Technology, priority 2005, published 2009).

Experiments:
Assay type in all cases: cell-based, human
Fz1 = experiment: RT-PCR expression in Caco-2 cells after FGF treatment: Fz1; conditions: normalized to PBS treatment, defined as 1.0
Text: Five μg of total RNA was isolated from Caco-2 cells using Trizol reagent (Life Tech, Rockville, Md.) followed by reverse transcription with random hexamers. Specific oligomers were designed based on published sequences in order to detect the expression of specific human Wnt, Fz and syndecan isoforms. Sequences of primer pairs were as follows: Wnt-1: 5′-CACGACCTCGTCTACTTCGAC-3′ (SEQ ID NO: 17) and 5′-ACAGACACTCGTGCAGTACGC-3′ (SEQ ID NO: 18); Wnt-2: 5′-CATGGTGGTACATGAGAGCTAC-3′ (SEQ ID NO: 19) and 5′-GGCAAATACAACTCCAGCTGAG-3′ (SEQ ID NO: 20); Wnt-3: 5′-GAGAGCCTCCCCGTCCACAG-3′ (SEQ ID NO: 21) and 5′-CTGCCAGGAGTGTATTCGCATC-3′ (SEQ ID NO: 22); Wnt-3a: 5′-CAGGAACTACGTGGAGATCATG-3′ (SEQ ID NO: 23) and 5′-CCATCCCACCAAACTCGATGTC-3′ (SEQ ID NO: 24); Fz-1: 5′-GAACTTTCCTCCAACTTCATGGC-3′ (SEQ ID NO: 25) and 5′-CATTTCCATTTTACAGACCGG-3′ (SEQ ID NO: 26); Fz-2: 5′-GGTGAGCCAGCACTGCAAGAG-3′ (SEQ ID NO: 27) and 5′-CCTAAAAGTGAAATGGTTTCGATCG-3′ (SEQ ID NO: 28); Fz-10: 5′-ACACGTCCAACGCCAGCATG-3′ (SEQ ID NO: 29) and 5′-ACGAGTCATGTTGTAGCCGATG-3′ (SEQ ID NO: 30); and Syndecan-1/Sdc-1/CD138: 5′-CTTCACACTCCCCACACAGA-3′ (SEQ ID NO: 31) and 5′-TCCTGTTTGGTGGGCTTCTG-3′ (SEQ ID NO: 32). To control for total cell […], RT-PCR was also performed on β-actin using the primers 5′-GCCAGCTCACCATGGATGATGATAT-3′ (SEQ ID NO: 33) and 5′-GCTTGCTGATCCACATCTGCTGGAA-3′ (SEQ ID NO: 34). PCR was performed using the Advantage-GC cDNA kit from Clontech as per manufacturer's instructions (Palo Alto, Calif.).

T84 cells = experiment: T84 proliferation assay (whole cell number); conditions: for increased whole cell number: 100 ng/ml ligand, three days, vs PBS control
Procedure: Caco-2 cells were grown to just prior to confluence, and T84 cells were grown to confluence. Each flask was washed with 20 ml PBS and treated with 3 ml trypsin-EDTA at 37° C. for 20-60 minutes until cells detached. Cells were centrifuged for 3 minutes at 195×g. The supernatant was aspirated, and the cells were resuspended in 10 ml media. The cell density was measured using an electronic cell counter, and the suspension was diluted to 50,000 cells/ml. The suspension was plated at 1 ml/well into 12-well tissue culture plates. After a 24 hour incubation in a 5% CO2, 37° C. humidified incubator, the media was aspirated, the wells were washed with serum free media, and the cells were supplemented with media containing 0.1% FBS. The wells were then supplemented with 10 μl PBS, 50 mM sodium chlorate, or 200 μM TM, and incubated for 24 hours. Subsequently, cells were supplemented with 100 ng/ml FGF1, FGF2, FGF7, or 10 μl PBS, and incubated for 72 hours. Wells were then washed twice with PBS and treated with 0.5 ml trypsin-EDTA/well and incubated at 37° C. until cells detached. Whole cell number was determined using an electronic cell counter. Data was averaged over three experiments, each consisting of four wells per condition.

β-catenin = experiment: Immunohistochemistry for β-catenin in Caco-2 cells; conditions: compared to PBS treatment
Procedure: Caco-2 cells were grown to just prior to confluency on collagen IV coated glass slides. Cells were treated with PBS, FGF1, FGF2 and FGF7, and were incubated at 37° C. in a 5% CO2 humidified incubator for 1 hour, 4 hours, 24 hours or 48 hours, as noted. Cells were washed with PBS, fixed with 3.7% formalin for 10 minutes and washed again with PBS. Cells were treated with 0.1% Triton x-100 for 5 minutes to extract lipids. Cells were washed with PBS and preincubated with PBS supplemented with 1% bovine serum albumin. Primary antibodies were added for 4 hours at room temperature, and cells were washed with PBS. Primary antibodies used were as follows: rabbit anti-human ZO-1 (1:160; Zymed Laboratories, San Francisco, Calif.); mouse anti-human syndecan-1 (1:300; Santa Cruz Biotechnology); goat anti-human Fz-1 (1:125; Santa Cruz Biotechnology); rabbit anti-human caveolin-1 (1:250; Santa Cruz Biotechnology); goat anti-human glypican-1 (1:100; Santa Cruz Biotechnology); mouse anti-human E-cadherin (1:250; Zymed Laboratories); rabbit anti-human β-catenin (1:125; Cell Signaling Technology, Beverly, Mass.); and rabbit anti-human phospho-β-catenin (Ser33/37/Thr41; 1:125; Cell Signaling Technology, Beverly, Mass.).
Cells were then treated with secondary antibodies, Texas Red-labeled phalloidin (Molecular Probes, Eugene, Oreg.) or FLAER-FL1 (1:400; Protox Biotech, Victoria, BC, Canada) as appropriate for 1 hour in the dark at room temperature. […]
(§1) Cells, except those stained with phalloidin, were washed with PBS and stained with diamidino-2-phenylindole (DAPI) for 5 minutes at room temperature (Molecular Probes). […] Cells were examined by confocal microscopy (ZO-1 and phalloidin only), or by fluorescence microscopy. A Nikon HB10101AF fluorescence microscope was used and images were captured at room temperature using a Hitachi HVC20 camera and Scion image acquisition software. […]

f-actin = f-actin (phalloidin) staining in Caco-2 cells; conditions: Caco-2 monolayers
Procedure: Caco-2 cells were grown to just prior to confluency on collagen IV coated glass slides. Cells were treated with PBS, FGF1, FGF2 and FGF7, and were incubated at 37° C. in a 5% CO2 humidified incubator for 1 hour, 4 hours, 24 hours or 48 hours, as noted. Cells were washed with PBS, fixed with 3.7% formalin for 10 minutes and washed again with PBS. Cells were treated with 0.1% Triton x-100 for 5 minutes to extract lipids. Cells were washed with PBS and preincubated with PBS supplemented with 1% bovine serum albumin. Primary antibodies were added for 4 hours at room temperature, and cells were washed with PBS. […]
as §1

Molecule	Fz1 expression (intensity of RT-PCR images) (Fz1)	effect of added agent on proliferative effect of FGF2 and FGF7 (T84 cells; TM 200 μM, FGF1 added to TM treated cells)	proliferation (in words) (T84 cells; over three days)	cytoplasmic β-catenin after 24 hours (β-catenin)	actin stress fiber formation (f-actin)	increased whole cell number (T84 cells) [%]
FGF1: Recombinant human FGF1 from Amgen	1.5	restored the proliferative capacity of these ligands	did not induce the proliferation	potentially reduced levels of cytoplasmic β-catenin	–	–
FGF2: Recombinant human FGF2, produced as described	1.1	–	–	induced markedly increased cytoplasmic β-catenin	induced actin stress fiber formation	24.8±8.8
FGF7: Recombinant human FGF7 from Sigma (protein, UniProt P21781 32-194, looked up) Fibroblast growth factor 7: CNDMTPEQMATNVNCSSPERHTRSYDYMEGGDIRVRRLFCRTQWYLRIDKRGKVKGTQEMKNNYNIMEIRTVAVGIVAIKGVESEFYLAMNKEGKLYAKKECNEDCNFKELILENHYNTYASAKWTHNGGEMFVALNQKGIPVRGKKTKKEQKTAHFLPMAIT	2.4	–	–	induced markedly increased cytoplasmic β-catenin	induced actin stress fiber formation	11.4±3.8
